Experimental data from the NIST ThermoML archive (doi:10.1016/j.tca.2008.09.010).
± gives the expanded uncertainty stated by the source.

Legend:
[1] = Crystal; DTA
[2] = Molar enthalpy of transition or fusion; settings: Crystal; DSC

Compound	Normal melting temperature [1] [°C]	Molar enthalpy of transition or fusion [2] [kcal/mol]
Clc1ccc(Cl)cc1 [1,4-dichlorobenzene]	53.00 ± 0.5	4.32 ± 0.103
c1ccc2c(c1)ccc1ccccc12 [phenanthrene]	98.90 ± 0.5	3.99 ± 0.0956
Clc1cccc(Cl)c1 [1,3-dichlorobenzene]	-24.90 ± 0.5	2.99 ± 0.0765
Clc1ccccc1Cl [1,2-dichlorobenzene]	-17.30 ± 0.5	3.13 ± 0.0789
